The text below walks through data of patent publication US9814865B2, “Coated medical device” (Cook Medical Technologies LLC, priority 2000, dated 2017).

This series can be described thus: physical adhesion test simulating introduction and deployment of paclitaxel-coated stents. It is filed as physicochemical. To be noted: passed through water-filled guiding catheter, balloon-expanded, measured by spectrometry. An excerpt: More particularly, the adhesion of paclitaxel to two types of stainless steel, grit abraded stents was compared to its adhesion to stents of those types whose surfaces had instead been plasma treated prior to the direct deposition of paclitaxel thereon (control stents). The coated stents of both types, that is, medical devices 10 of the present invention and control stents, were then subjected to a physical adhesion test which simulated the rate at which paclitaxel would be delivered during introduction and deployment of the stents in clinical use. The adhesion test involved passing each stent through a water-filled guiding catheter of appropriate diameter and inflating the balloon catheter to expand each stent to its intended diameter. The stents are already mounted before coating. The amount of paclitaxel remaining on each stent was then measured by spectrometry and compared to the amount of paclitaxel initially posited on each stent. Stents having surfaces 16 roughened or textured by abrasion with different abrasive grits 24 retained 84.1±10.2% of the paclitaxel originally applied, while stents having plasma treated surfaces retained only 44.3±8.7% of the paclitaxel originally applied (p<0.0001).

SMILES strings stand for the structures.

On to `CC(=O)O[C@H]1C(=O)[C@@]2(C)[C@H]([C@H](OC(=O)c3ccccc3)[C@]3(O)C[C@H](OC(=O)[C@H](O)[C@@H](NC(=O)c4ccccc4)c4ccccc4)C(C)=C1C3(C)C)[C@]1(OC(C)=O)CO[C@@H]1C[C@@H]2O` [paclitaxel], for which the “paclitaxel originally applied retained on stent after adhesion test” value runs as follows: (stainless steel control stents with plasma treated surfaces, p<0.0001 vs abraded) 44.3±8.7%; (stainless steel stents, surfaces roughened or textured by abrasion with different abrasive grits) 84.1±10.2%.
